Laboratory results reported in patent US10092620B2, “Uses of cyclic peptides for treating and preventing atherosclerosis” (THE SCRIPPS RESEARCH INSTITUTE, priority 2013, dated 2018).
Non-standard residues stand in square brackets, D forms with d. Residues, ends and D or L forms follow the SMILES beside them.

How the values were obtained:
[1] = mouse pharmacokinetics, i.p., LC-MS SIM; assay type: in vivo; settings: male, BALB/cByJ, plasma, ip, BALB/c mice, i.p. 16 mg/kg
Experimental: Pharmacokinetics: The TSRI Institutional Animal Care and Use Committee approved all experimental protocols involving live animals. Male mice (20 g) on a BALB/cByJ background were obtained from the Rodent Breeding Colony of the Department of Animal Resources at TSRI, and were maintained on a chow diet. The cyclic peptide c[wLwReQeR], 1, was dissolved in PBS containing 1% sucrose, and sterile filtered through a 0.22-μm syringe filter before injection. Mice were fasted beginning 12 h before dosing, and continued the fast until after the 8-h time point blood draw was completed. Groups of three mice received a 16-mg/kg dose of the cyclic peptide via intraperitoneal injection (0.3 mL). Blood was drawn (30-60 μL) from the retro-orbital sinus into a heparinized capillary tube before dosing (0 min) and at different intervals from 30 min to 8 h after dosing. Plasma was isolated immediately from the whole blood by centrifugation at 5000 rpm for 10 min at 4° C. […] The resultant supernatant was analyzed by using LC-MS SIM as described below.
LC-MS SIM quantitation of peptide concentration: Cyclic peptide concentrations were quantified by using reverse-phase HPLC coupled with mass spectrometry. […] For quantitative calibration, standard curves were established using mouse EDTA-anticoagulated plasma spiked with various concentrations of the peptide. […]

LDLr-null mice = experiment: evaluation of atherosclerosis: whole aorta lesion area and aortic sinus lesion volume; assay type: in vivo, mouse; settings: 10 weeks
Text: In vivo efficacy study: LDL receptor-null (LDLr^−/−) mice on a C57BL/6J background were initially purchased from Jackson Laboratories (Bar Harbor, Me.) and were bred in house. The mice were weaned at 4 weeks of age and were fed ad libitum a standard chow diet (Harlan Teklad 7019) until they were 10-weeks old, when they were switched to a high-fat Western diet (WD) containing 15.8% (wt/wt) fat, 1.25% (wt/wt) cholesterol, and no cholate (Harlan Teklad 94059). At the time that the WD was started, the test cyclic peptide was added to the drinking water at a high dose of 180 μM (200 μg/mL) or a low dose of 18 μM (20 μg/mL) and the mice (female, n=8 per dosing group) were continued on WD for 10 weeks. The lyophilized peptide was easily dissolved in PBS (pH 7.4) containing 1% sucrose, resulting in a clear solution. The drinking water solution was replaced with fresh solution every day. A control group of eight mice (female, n=8) were fed WD with vehicle (PBS with 1% sucrose) drinking water. The mice consumed approximately 2.5 mL of water per day per mouse, and there was no significant difference in water or food consumption between groups.
Evaluation of atherosclerosis: Atherosclerotic lesion severity was assessed in the aortae as previously described in Mullick et al., J. Clin. Invest. 115, 3149-3156, 2005. Briefly, at euthanasia, animals were perfused with PBS, followed by 4% formaldehyde (10% UltraPure EM Grade from Polysciences diluted in PBS, pH 7.2). For en face analysis, the entire mouse aorta was dissected from the proximal ascending aorta to the bifurcation of the iliac artery by using a dissecting microscope. Adventitial fat was removed, and the aorta was opened longitudinally, pinned flat onto black dissecting wax, stained with Sudan IV, and photographed at a fixed magnification. The photographs were digitized, and total aortic areas and lesion areas were calculated by using Adobe Photoshop version CS4, Chromatica V, and NIH Scion Image software (http://rsb.info.nih.gov/nih-image/Default.html). The results were reported as a percentage of the total aortic area that contained lesions.
As a second assessment of atherosclerosis, lesions of the aortic root (heart sinus) were analyzed. Utilizing stereological principles, lesion volume was estimated across a fixed distance of the aortic sinus. […] Lesion areas found only within the valve cusp were measured. […] Lesion volume was calculated from an integration of the measured cross-sectional areas. […]
Other than their in vivo cholesterol reducing activities, several peptides were also examined for ability to inhibit development of atherosclerotic legions in vivo. […] All charts in the figure are shown as a scatter plot along with mean±SD. p values were determined by the one-way ANOVA test with a post hoc Tukey-Kramer test.

[2] = oral ~25 mg/kg/day, LDLr-null mice, high-fat diet, vs control

SMILES: CC(C)C[C@@H]1NC(=O)[C@@H](Cc2c[nH]c3ccccc23)NC(=O)[C@H](CCCNC(=N)N)NC(=O)[C@@H](CCC(=O)O)NC(=O)[C@H](CCC(N)=O)NC(=O)[C@@H](CCC(=O)O)NC(=O)[C@H](CCCNC(=N)N)NC(=O)[C@@H](Cc2c[nH]c3ccccc23)NC1=O [SEQ ID NO:1, c[wLwReQeR]] (cyclo([dW]L[dW]R[dE]Q[dE]R))
- half-life [1]: ~2 h
- atherosclerotic lesions vs control (in words) (LDLr-null mice; 10-fold lower dose in drinking water): no significant differences
- reduction in aortic sinus lesion volume (LDLr-null mice; [2]): 50%
- reduction in whole aorta lesion area (LDLr-null mice; [2]): 26%
